This is an account of results in patent US4134989A (Aziende Chimiche Riunite Angelini Francesco A.C.R.A.F. …, priority 1976, dated 1979).

Where two headings read alike, the source gives them in different places.

Series [1] relates to gastric mucosa. Nature of the series: Gastrointestinal tolerance: ulcerogenic activity in the gastric mucosa of rats. In kind it is in vivo, Long-Evans rats.
Description: (§2) Experiments were done in Long-Evans rats of both sexes weighing 150-190 grams. The drugs were suspended in methyl-cellulose (0.5%) and given by gavage. The animals were fasted during the 8 hours before treatment and were sacrificed 18 hours later. They were autopsied and gastrointestinal lesions were scored according to the score system described by Cioli et al. (1967).
Series [2] deals with carrageenin-induced paw edema. Nature of the series: Anti-edema activity: carrageenin-induced paw edema in rats (Winter et al.). The arrangement: Reduction of edema: unit not given here. To be noted: for anti-inflammatory activity, comparison of the two drugs: carrageenin edema, rats, by gavage. In kind it is in vivo, Long-Evans rats. An excerpt: (§1) 3. Anti-inflammatory activity: In connection with the anti-inflammatory activity, both the anti-edema and analgesic activities were studied (namely, the ability to inhibit the painful response from inflamed tissues). The anti-edema activity was studied according to Winter et al. (1962). WINTER C. A., RISLEY E. A. and NUSS G. W., Carrageenin-induced edema in hind
paw of the rat as an assay for anti-inflammatory drugs. Proc. Soc. Exp. Biol. Med. 111, 544-547, 1962. […]

Series [3] deals with writhing reflexes induced by phenylquinone. As to the kind of experiment: Analgesic activity: writhing reflexes induced by phenylquinone (Hendershot and Forsaith). In kind it is in vivo, Swiss mice.
Description: as §1
The analgesic activity was studied according to Hendershot and Forsaith (1959). HENDERSHOT L. C. and FORSAITH J., Antagonism of the frequency of phenylquinone induced writhing in the mouse by weak analgesics and non-analgesics. J. Pharmacol. Exp. Ther. 125, 237-240, 1959. Swiss mice of both sexes weighing 18-22 grams were used.

The nature of series [4]: Pharmacokinetic study: serum samples after oral administration to rats. In kind it is in vivo, Long-Evans rats. The protocol:
The test for the anti-tussive activity was done according to S[…]nd Pozzatti (1960) S[…]. and POZZATTI C., Anti-tussive activity and other pharmacological properties of six oxadiazoles. Arch. int. pharmacodyn. 129, 249-263, 1960. Since the details are given in this publication, it should only be recalled that the test is performed on guineapigs by using acrolein inhalation to produce cough. Male guinea pigs were used weighing 300-500 grams. The pharmacokinetic study was performed in Long-Evans rats of both sexes weighing 150 grams. […] The animals were sacrificed at
time intervals and serum samples were taken. […] MIZUTANI M. and NAITO S., Studies on absorption and excretion of drugs. XXIX. Biopharmaceutical studies on guaiacol glycerol ether and related compounds. I. Blood level of guaiacol glycerol ether in rabbit and its binding with serum proteins. Chem. Pharm. Bull. 15, 1422-1426, 1967. Moreoever, ibuprofen and guaiacol were dosed according to the methods of Kaiser and […] (1974) and Mizutani and Naito (1967), respectively. KAISER, D. G. and […]. J., GLC determination of ibuprofen [(+)-2-(p-isobutylphenyl)propionic acid] in plasma. J. Pharm. Sci. 63, 219-221, 1974. MIZUTANI M. and NAITO S., Studies on absorption and excretion of drugs. XXIX. Biopharmaceutical studies on guaiacol glycerol ether and related compounds. […]

Series [5] deals with intestine. The settings on record: rat, in vivo, po.
Description: as §2
The nature of series [6]: in vivo. The settings on record: rat, po.
Description: Long-Evans rats of both sexes were used weighing 135-188 grams. The drugs were suspended in methyl-cellulose (0.5%) and given by gavage. Deaths were recorded during the two weeks following treatment. The LD50 was calculated according to Litchfield and Wilcoxon (1949).
The subject of series [7] is cough produced by acrolein inhalation. As to the kind of experiment: Anti-tussive activity: cough produced by acrolein inhalation in guinea pigs (Silvestrini and Pozzatti). In kind it is in vivo. To be noted: Cavia porcellus, acrolein-induced cough. The method, then: The test for the anti-tussive activity was done according to Silvestrini and Pozzatti (1960) […] B. and POZZATTI C., Anti-tussive activity and other pharmacological properties of six oxadiazoles. Arch. int. pharmacodyn. 129, 249-263, 1960. Since the details are given in this publication, it should only be recalled that the test is performed on guineapigs by using acrolein inhalation to produce cough. Male guinea pigs were used weighing 300-500 grams. The pharmacokinetic study was performed in Long-Evans rats of both sexes weighing 150 grams. […] The animals were sacrificed at […]

The nature of series [8]: Hydrolysis of GIH in the presence of serum.
The nature of series [9]: Hydrolysis of GIH in the presence of artificial gastric juices.
Series [10] concerns intestine. As to the kind of experiment: Gastrointestinal tolerance: ulcerogenic activity on the intestine of rats. The settings on record: intestinal lesions, by gavage.
Description: as §2

As to `CC(C)Cc1ccc(C(C)C(=O)O)cc1` (single isomer, unassigned; (+)) [Ibuprofen, (+)-2-(p-isobutylphenyl)propionic acid, reference compound], the “% of rats with ulcers” value was found to be 11% in series [1] (16 mg/kg p.o.); 33% in series [1] (25 mg/kg p.o.); 43% in series [1] (75 mg/kg p.o.); 0% in [5] (16 mg/kg); 20% in series [5] (25 mg/kg); 63% in series [5] (75 mg/kg). In addition, the Reduction of edema in series [2] (2.5 mg/kg p.o., 2 hours) came out at 17; in series [2] (2.5 mg/kg p.o., 4 hours) it was 15; in series [2] (2.5 mg/kg p.o., 6 hours) it was 3; in series [2] (5 mg/kg p.o., 2 hours) it was 41; in series [2] (5 mg/kg p.o., 4 hours), 31; in series [2] (5 mg/kg p.o., 6 hours), 26. The Reduction of edema in series [2] (10 mg/kg p.o., 2 hours) worked out at 57; in series [2] (10 mg/kg p.o., 4 hours), 47; in [2] (10 mg/kg p.o., 6 hours) it was 36. In series [2], the “anti-inflammatory activity, comparison of the two drugs” value is recorded as “substantially the same anti-inflammatory activity”. Besides, the “% reduction in number of writhings” value in series [3] (5 mg/kg p.o.) came out at 18%; in series [3] (10 mg/kg p.o.), 46%; in series [3] (20 mg/kg p.o.), 52%. In series [4], the “presence in serum samples of rats treated with GIH” value was “found in the serum samples”. Further, the LD50 at 336 h in series [6] came to 640 mg/kg.
`COc1ccccc1OC(=O)C(C)c1ccc(CC(C)C)cc1` (stereo not shown) [GIH, guaiacol p-isobutyl hydratropate]: the “% of rats with ulcers” value in series [1] (25 mg/kg p.o.) was found to be 0%; in [1] (38 mg/kg p.o.) it was 10%; in series [1] (112 mg/kg p.o.) it was 33%; in series [5] (25 mg/kg) it was 0%; in series [5] (38 mg/kg) it was 20%; in series [5] (112 mg/kg) it was 33%. Also, in series [1] (rats, by gavage), the “effect on the gastric mucosa compared with ibuprofen” value is reported as “less toxic than ibuprofen”. Besides, the Reduction of edema amounted to 22 in series [2] (1.9 mg/kg p.o., 2 hours); 12 in [2] (1.9 mg/kg p.o., 4 hours); 1 in series [2] (1.9 mg/kg p.o., 6 hours); 33 in series [2] (3.8 mg/kg p.o., 2 hours); 26 in series [2] (3.8 mg/kg p.o., 4 hours); 17 in series [2] (3.8 mg/kg p.o., 6 hours). Besides, the Reduction of edema in series [2] (7.5 mg/kg p.o., 2 hours) was 41; in series [2] (7.5 mg/kg p.o., 4 hours), 28; in [2] (7.5 mg/kg p.o., 6 hours), 27; in series [2] (15 mg/kg p.o., 2 hours) it was 50; in series [2] (15 mg/kg p.o., 4 hours), 45; in [2] (15 mg/kg p.o., 6 hours) it was 43. In addition, the “anti-inflammatory activity, comparison of the two drugs” value in series [2] is on record as “substantially the same anti-inflammatory activity”. For the same compound, the “% reduction in number of writhings” value is 11% in series [3] (1.9 mg/kg p.o.); 28% in [3] (3.8 mg/kg p.o.); 37% in series [3] (7.5 mg/kg p.o.); 43% in series [3] (15 mg/kg p.o.); 55% in [3] (30 mg/kg p.o.). The compound further showed a minimal effective dose in series [7] (po) of 25 mg/kg. Also, in series [6], the LD50 at 336 h turned out to be 1650 mg/kg. For the same compound, the hydrolysis entry was “rapidly hydrolyzed into ibuprofen and guaiacol” in series [8]; “no hydrolysis occurs” in series [9]. In addition, in [10], the “gastrointestinal toxicity compared with ibuprofen” value was “less toxic than ibuprofen”.
Compound `COc1ccc2c3c1O[C@H]1[C@@H](O)C=C[C@H]4[C@@H](C2)N(C)CC[C@@]341` [codein, reference compound] came in with a minimal effective dose in series [7] (ip) of 2.5 mg/kg.
